Reference: patent US20200164084A1, “ANTIBODY CONJUGATES COMPRISING TOLL-LIKE RECEPTOR AGONIST AND COMBINATION THERAPIES” (NOVARTIS AG, priority 2017, published 2020)

How the values were obtained:
[1] = In vitro stability of conjugates in mouse serum (deconjugation and succinimide ring hydrolysis by LC-MS); format: in vitro ADME; conditions: anti-HER2 mAb2 conjugates, 37° C.
Description: The stability of the bond formed between maleimide containing payloads and Cys residues of the antibody is enhanced by the hydrolysis of the succinimide ring formed in this reaction. The effects of succinimide ring hydrolysis on the stability of antibody conjugates prepared with agonist compounds of the invention were studied after in vitro incubation in mouse serum. Mass changes resulting from payload deconjugation and the hydrolysis of the succinimide ring of maleimide payloads conjugated to antibodies were monitored by LC-MS. The hydrolysis of the succinimide ring has been reported to be stimulated by certain conditions such as high pH, high temperature, or high salts (J. Am. Chem. Soc. 1955, 77: 3922; Biochemistry 1976, 15: 2836; Biochem. J. 1979, 179: 191-197; J Pharm Sci. 1984, 73:1767-1771; Bioorg. Med. Chem. Lett. 17: 6286-6289, 2007). To probe the in vitro stability of conjugates, anti-HER2 antibody mAb2 conjugates were incubated at 37° C. in 50-70% mouse serum. […] The light chain, heavy chain Fab, and heavy chain Fc fragments were then analyzed by ESI-MS. The relative populations of deconjugated antibody, conjugates with attached payload with hydrolyzed succinimide ring, and conjugates with attached payload with intact succinimide ring, were calculated from the relative MS intensities of the corresponding conjugate species. […]

human TLR7 = molecular target: T1, human TLR7 (Homo sapiens, UniProt Q9NYK1); experiment: TLR7 reporter gene assay (HEK293, NF-kB-driven luciferase); format: cell-based; conditions: HEK293 cells stably transfected with human TLR7 and NF-kB-driven luciferase reporter
T1 construct: expressed in transfected cells; host or cells: HEK293
T1 sequence (Q9NYK1 27-1049): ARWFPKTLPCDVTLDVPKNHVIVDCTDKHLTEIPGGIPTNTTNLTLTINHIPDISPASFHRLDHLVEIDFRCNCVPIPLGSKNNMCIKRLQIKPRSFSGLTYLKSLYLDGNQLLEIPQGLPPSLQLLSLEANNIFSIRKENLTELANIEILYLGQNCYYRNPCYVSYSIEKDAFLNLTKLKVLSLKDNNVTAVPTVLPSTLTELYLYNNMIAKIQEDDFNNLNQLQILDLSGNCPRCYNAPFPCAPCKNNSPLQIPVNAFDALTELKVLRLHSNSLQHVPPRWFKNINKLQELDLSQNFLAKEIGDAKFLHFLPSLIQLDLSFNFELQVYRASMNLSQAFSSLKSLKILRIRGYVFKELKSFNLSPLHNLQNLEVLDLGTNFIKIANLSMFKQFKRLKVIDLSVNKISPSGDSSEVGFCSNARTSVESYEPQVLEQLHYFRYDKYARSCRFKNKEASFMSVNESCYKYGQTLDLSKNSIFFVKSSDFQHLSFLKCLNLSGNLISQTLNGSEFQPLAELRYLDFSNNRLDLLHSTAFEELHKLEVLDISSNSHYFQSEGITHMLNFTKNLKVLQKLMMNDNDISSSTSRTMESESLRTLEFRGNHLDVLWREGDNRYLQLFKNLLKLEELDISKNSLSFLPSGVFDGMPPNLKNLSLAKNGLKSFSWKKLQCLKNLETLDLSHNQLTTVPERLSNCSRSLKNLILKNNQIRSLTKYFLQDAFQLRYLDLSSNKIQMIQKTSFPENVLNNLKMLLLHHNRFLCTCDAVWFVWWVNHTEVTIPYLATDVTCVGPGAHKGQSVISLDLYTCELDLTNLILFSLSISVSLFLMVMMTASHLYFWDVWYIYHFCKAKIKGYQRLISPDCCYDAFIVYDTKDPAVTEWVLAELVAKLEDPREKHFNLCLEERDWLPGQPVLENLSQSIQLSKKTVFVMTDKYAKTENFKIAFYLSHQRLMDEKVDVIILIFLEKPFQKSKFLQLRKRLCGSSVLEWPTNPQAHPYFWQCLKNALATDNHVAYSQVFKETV
Description: Compounds of Formula (I) were assayed to measure their activity as toll-like receptor 7 agonists.
As a control assay, normal HEK293 transfected with pNifty-Luc were used. […] Bright-Glo™ Luciferase assay buffer and substrate were supplied by Promega # E263B and # E264B (assay substrate and buffer respectively). 384 well clear-bottom plates were supplied by Greiner bio-one (#789163-G) and were custom bar-coded plates.
Cells were plated at 25,000 cells/well in 384-well plates in a final volume of 50 μl of media. Cells were allowed to adhere to the plates after overnight (18 hours) culture at 37° C. and 5% CO2. Serially diluted experimental and positive control compounds were then dispensed to each well and incubated for 7 hours at 37° C. and 5% CO2. Cells stimulated with DMSO alone also serve as negative controls. After the incubation, 30 μl of the pre-mix assay buffer and substrate buffer were added to each well according to manufacturer's instructions. The luminescence signal was read on a CLIPR machine with an integration time of 20 seconds per plate.

Row | Compound | conjugate stability (deconjugation through reverse maleimide reaction, succinimide ring hydrolysis) [1] | EC50 (human TLR7) [nM]
1 | CCCCCNc1nc(N)nc2ccn(Cc3ccc(CN4CCN(CCN5C(=O)C=CC5=O)CC4)cc3OC)c12 [Compound C-5, 1-(2-(4-(4-((2-amino-4-(pentylamino)-5H-pyrrolo[3,2-d]pyrimidin-5-yl)methyl)-3-methoxybenzyl)piperazin-1-yl)ethyl)-1H-pyrrole-2,5-dione] | improved conjugate stability | 
2 | CCCCCNc1nc(N)nc2ccn(Cc3ccc(CN4CCN(C(=O)CCOCCOCCNC(=O)CN5C(=O)C=CC5=O)CC4)cc3OC)c12 [Compound C-21, N-(2-(2-(3-(4-(4-((2-amino-4-(pentylamino)-5H-pyrrolo[3,2-d]pyrimidin-5-yl)methyl)-3-methoxybenzyl)piperazin-1-yl)-3-oxopropoxy)ethoxy)ethyl)-2-(2,5-dioxo-2,5-dihydro-1H-pyrrol-1-yl)acetamide] | improved conjugate stability | 
3 | CCCC[C@@H](CO)Nc1nc(N)nc2ccn(Cc3cc(CN4CCN(C(=O)CCCC(=O)NCCCC[C@H](N)C(=O)O)CC4)ccc3OC)c12 [Compound C-48, (S)-2-amino-6-(5-(4-(3-((2-amino-4-(((S)-1-hydroxyhexan-2-yl)amino)-5H-pyrrolo[3,2-d]pyrimidin-5-yl)methyl)-4-methoxybenzyl)piperazin-1-yl)-5-oxopentanamido)hexanoic acid] |  | 1900
4 | CCCCCNc1nc(N)nc2ccn(Cc3ccc(CN4CCN(CCO)CC4)cc3OC)c12 [Compound C-68, 2-(4-(4-((2-amino-4-(pentylamino)-5H-pyrrolo[3,2-d]pyrimidin-5-yl)methyl)-3-methoxybenzyl)piperazin-1-yl)ethan-1-ol] |  | < 1
